Laboratory results from US11542316B2, “S-Arrestin peptides and therapeutic uses thereof” (APITOPE INTERNATIONAL NV, priority 2017, dated 2023).
Ends that are not written are not given here.

Columns and labels:
[1] = system: SAg-specific hybridoma cells / T cell line with VAVY APC; assay: Antigen Processing Independent Presentation System (APIPS) assay, fresh or fixed VAVY APC; type: cell-based, DR3 mice; conditions: DR3 hybridoma clone (IL-2, 48 h) or T cell line (IFN-γ, 24 h)
Description: (§1) FIG. 2: identification of apitopes within HIP-115. (A) DR3 mice were immunized with SAg and hybridomas were generated. 5×10^4 SAg-specific hybridoma cells were cultured with 5×10^4 fresh or fixed commercial APC (VAVY) cells. T cell proliferation was measured by IL-2 ELISA on supernatants collected after 48 h. The graph represents the mean of duplicate measurements±SEM. (B) DR3 mice were immunized with HIP-115 and a T cell line was established. Ten days after immunization the LN and spleens were harvested and cultured with different concentrations of peptide (0.1-1-2.5 and 5 μg/ml); 2×10^6 cells/ml APC+1×10^6 cells/ml CD4 T cells per well. At day 7 the cells were re-stimulated with the same concentrations of peptide. On day 14 an APIPS test was done using commercial APC (VAVY). After 24 h, antigen-induced T cell activation was measured by IFN-γ ELISA and shown as IFN-γ concentration (pg/ml). The graph represents the mean of duplicate measurements±SEM. LN, lymph nodes; APC, Antigen presenting cell; APIPS, Antigen Processing Independent Presentation System.
as §1, with “3:” for “2:”, “HIP-241125.” for “HIP-115.”, “HIP-241125+HIP-24DG” for “HIP-115”
(§2) FIG. 5: Identification of apitopes within HIP-17GN. DR3 mice were immunized with HIP-17GN and a T cell line was established. Ten days after immunization the LN and spleens were harvested and cultured with different concentrations of peptide (0.1-1-2.5 and 5 μg/ml); 2×10^6 cells/ml APC+1×10^6 cells/ml CD4 T cells per well. At day 7 the cells were re-stimulated with the same concentrations of peptide. On day 14 an APIPS test was done using commercial APC (VAVY). After 24 h, antigen-induced T cell activation was measured by IFN-γ ELISA and shown as OD values. The graph represents the mean of triplicate measurements±SEM. LN, lymph nodes; APC, Antigen presenting cell; APIPS, Antigen Processing Independent Presentation System.
as §2, with “6:” for “5:”, “HIP-12AK.” for “HIP-17GN.”, “HIP-12AK” for “HIP-17GN”, “IFN-γ concentration (pg/ml).” for “OD values.”, “duplicate” for “triplicate”
Antigen-specific clones or TCL were tested for their reactivity to the peptides, presented by fixed or not fixed (fresh) cells (VAVY or MGAR) (=APCs). 5×10^4 cells from the individual clones were cultured with 10 μg/ml peptide and 5×10^4 fixed or fresh APCs. […]

[2] = system: LN cells and splenocytes upon SAg or peptide restimulation; assay: Ex vivo tolerization experiment, DR2tg mice; type: in vivo; conditions: DR2 mice, IFN-γ
Description: FIG. 7: Ex vivo tolerisation protocol. Mice are injected subcutaneously in the flank with 0.1 μg/ml, 1 μg/ml and 10 μg/ml peptide on days −15, −13 and −11, followed by 3 injections of 100 μg/ml on days −8, −6 and −4 (escalating dose regime). On day 0, mice are immunized subcutaneously at the base of the tail with SAg/CFA or peptide/CFA. Mice are sacrificed 10 days after immunization to measure proliferation of LN cells and splenocytes upon SAg or peptide restimulation. LN, lymph nodes.
FIG. 11: Ex vivo tolerance induction by HIP-9K1-KKK apitope. DR2 mice are injected subcutaneously in the flank with 0.1 μg/ml, 1 μg/ml and 10 μg/ml HIP-9K1-KKK on days −15, −13 and −11, followed by 3 injections of 100 μg/ml on days −8, −6 and −4 (escalating dose regime). On day 0, mice are immunized subcutaneously at the base of the tail with HIP-9FL/CFA. Mice are sacrificed 10 days after immunization to measure proliferation of LN cells and splenocytes upon SAg or peptide restimulation. Data represent mean±SEM of the concentration values for the PBS-treated mice (black lines) and peptide-treated mice (color lines). IFN-γ production expressed as IFN-γ concentration (pg/ml). Two-way ANOVA was used to measure overall treatment effects on T cell activation and p-values are written in the graphs. Bonferonni post-hoc testing was used and significant differences are indicated in the graphs (* p<0.05; **** p<0.0001). LN, lymph nodes. (A) Tolerisation against SAg in LN. (B) Tolerisation against HIP-9FL and HIP-9K1-KKK in LN. (C) Tolerisation against SAg in spleen. (D) Tolerisation against HIP-9FL and HIP-9K1-KKK in spleen.
FIG. 13: Ex vivo tolerance induction by HIP-12G1-KKK apitope. DR2 mice are injected subcutaneously in the flank with 0.1 μg/ml, 1 μg/ml and 10 μg/ml HIP-12G1-KKK on days −15, −13 and −11, followed by 3 injections of 100 μg/ml on days −8, −6 and −4 (escalating dose regime). On day 0, mice are immunized subcutaneously at the base of the tail with HIP-12AK/CFA. Mice are sacrificed 10 days after immunization to measure proliferation of LN cells and splenocytes upon SAg or peptide restimulation. Data represent mean±SEM of the concentration values for the PBS-treated mice (black lines) and peptide-treated mice (color lines). IFN-γ production expressed as IFN-γ concentration (pg/ml). Two-way ANOVA was used to measure overall treatment effects on T cell activation and p-values are written in the graphs. Bonferonni post-hoc testing was used and significant differences are indicated in the graphs (** p<0.01; *** p<0.001: **** p<0.0001). LN, lymph nodes. (A) Tolerisation against HIP-12G1-KKK and HIP-12G1 in LN. (B) Tolerisation against HIP-12G1-KKK in spleen.
DR3tg or DR2tg mice were injected subcutaneously in the flank region with 0.1 μg, 1 μg and 10 μg of peptide on days −15, −13 and −11 respectively, followed by 3 injections of 100 μg peptide on days −8, −6 and −4 (dose escalation schedule). On day 0, the mice were immunised subcutaneously in the base of the tail with 50 μg antigen (parental peptide) emulsified in CFA (peptide/CFA). Ten days after immunisation, draining lymph nodes (LN) and spleens were harvested. LN cells and splenocytes were isolated and cultured in X-vivo 15 medium (supplemented with 2 mM L-glutamine, 50 U/mL penicillin and 50 U/mL streptomycin; Lonza) in 96-well flat bottom plates. To investigate antigen-induced cell proliferation, 0.5×10^6 cells/well were cultured (200 μl/well) for 72 hours with different antigen concentrations (0-25 μg/ml) or with 12.5 μg/ml purified protein derivative (PPD; priming control; Statens serum institut, Copenhagen, Denmark). After 72 hours, supernatant was harvested and stored at −80° C. until further analysis. IFN-γ concentrations in supernatants were assessed by cytokine ELISA (R&D Systems, Abingdon, UK) to measure cell activation.

[3] = system: T cell line with MGAR APC; assay: Antigen Processing Independent Presentation System (APIPS) assay, fresh or fixed MGAR APC; type: cell-based, DR2 mice; conditions: DR2 T cell line, IFN-γ, 24 h
Description: FIG. 4: Identification of apitopes within HIP-9FL. DR2 mice were immunized with HIP-9FL-KKK and a T cell line was established. Ten days after immunization the LN and spleens were harvested and cultured with different concentrations of peptide (0.1-1-2.5 and 5 μg/ml); 2×10^6 cells/ml APCs+1×10^6 cells/ml CD4 T cells per well. At day 7 the cells were re-stimulated with the same concentrations of peptide. On day 21 an APIPS test was done using commercial APC (MGAR). After 24 h, antigen-induced T cell activation was measured by IFN-γ ELISA and shown as OD values. The graph represents the mean of duplicate measurements±SEM. LN, lymph nodes; APC, Antigen presenting cell; APIPS, Antigen Processing Independent Presentation System.
Antigen-specific clones or TCL were tested for their reactivity to the peptides, presented by fixed or not fixed (fresh) cells (VAVY or MGAR) (=APCs). 5×10^4 cells from the individual clones were cultured with 10 μg/ml peptide and 5×10^4 fixed or fresh APCs. In the case of TCL, 5×10^4 cells were cultured with 10 μg/ml and 25 μg/ml peptide and 2.5×10^4 fixed or fresh APCs. To fixate APCs, cells were incubated with 0.5% paraformaldehyde (Merck, Darmstadt, Germany) (pH7) for 5 min at room temperature (RT). The fixation reaction was stopped by adding 0.4M glycine (Sigma-Aldrich) and washing the cells in RPMI-10% FCS. Additionally, reactivity towards human SAg protein (QBiologicals, Eurofins Amatsigroup, Ghent, Belgium) was measured to identify cryptic epitopes. After 24 h or 48 h, antigen-induced IFN-γ or IL-2 production (respectively) was measured by ELISA (R&D Systems, Abingdon, UK).
DR3tg or DR2tg mice were immunised subcutaneously in the base of the tail with 50 μg peptide emulsified in CFA (peptide/CFA). Ten days after immunisation, draining lymph nodes (LN) and spleens were harvested. […] At day 7, TCL cells were counted and cultured with fresh APC, peptides and IL-2, all at the same concentrations as above. […]

Substance	behaves as apitope (response to peptide presented by fresh or fixed APC) [1]	tolerization against the peptide itself / parental peptide ([2]; LN)	tolerization against the peptide itself ([2]; spleen)	behaves as apitope (response to peptide presented by fresh or fixed APC) [3]
KKKGILVSYQIKVKKKK-NH2 [HIP-12G1-KKK, KKKGILVSYQIKVKKKK]	behave as apitopes	tolerization induced	tolerization induced	
VKKIKAFVEQVANVVLYSSDY-NH2 [HIP-9FL]				behave as apitopes
KKKVKKIKAFVEQVANVVLYSSDYKKK-NH2 [HIP-9FL-KKK]				behave as apitopes
